# Test results: PubChem BioAssay (NCI)
#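 Each compound was tested at five concentrations against cells in 96-well plates for 48 hours. Here, GI50 denotes the concentration required for 50% inhibition of growth. TGI denotes the concentration required for complete inhibition of growth.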
# Columns and labels:
# Assay in all cases: inhibition of tumour cell growth, NCI panel, 48 h
# ACHN renal = test system: ACHN renal
# MDA-MB-468 breast = test system: MDA-MB-468 breast
# COLO 205 colon = test system: COLO 205 colon
# NCI-H226 lung = test system: NCI-H226 lung
# SK-MEL-28 melanoma = test system: SK-MEL-28 melanoma
# EKVX NSCLC = test system: EKVX NSCLC
# HT29 colon = test system: HT29 colon
# KM12 colon = test system: KM12 colon
# OVCAR-5 ovarian = test system: OVCAR-5 ovarian
# IGROV1 ovarian = test system: IGROV1 ovarian
# U251 CNS = test system: U251 CNS
# OVCAR-3 ovarian = test system: OVCAR-3 ovarian
# TK-10 renal = test system: TK-10 renal
# SK-MEL-5 melanoma = test system: SK-MEL-5 melanoma
# SF-268 CNS = test system: SF-268 CNS
# UO-31 renal = test system: UO-31 renal
# SF-539 CNS = test system: SF-539 CNS
# BT-549 breast = test system: BT-549 breast
# SNB-75 CNS = test system: SNB-75 CNS
# M14 melanoma = test system: M14 melanoma
# A498 renal = test system: A498 renal
# SF-295 CNS = test system: SF-295 CNS
# NCI/ADR-RES ovarian = test system: NCI/ADR-RES ovarian
# NCI-H460 lung = test system: NCI-H460 lung
# HCT-15 colon = test system: HCT-15 colon
# SNB-19 CNS = test system: SNB-19 CNS
# T-47D breast = test system: T-47D breast
# PC-3 prostate = test system: PC-3 prostate
# MOLT-4 leukemia = test system: MOLT-4 leukemia
# CAKI-1 renal = test system: CAKI-1 renal
compound,measurement,setting,value
N#Cc1c(NC(=O)c2ccc(C(F)(F)F)c(Cl)c2)sc2c1CCC(=O)C2,GI50,ACHN renal,692 nM
same,TGI,ACHN renal,1860 nM
same,GI50,MDA-MB-468 breast,416 nM
same,TGI,MDA-MB-468 breast,1490 nM
same,GI50,COLO 205 colon,1170 nM
same,TGI,COLO 205 colon,2610 nM
same,GI50,NCI-H226 lung,2590 nM
same,TGI,NCI-H226 lung,8600 nM
same,GI50,SK-MEL-28 melanoma,1080 nM
same,TGI,SK-MEL-28 melanoma,2570 nM
same,GI50,EKVX NSCLC,1900 nM
same,TGI,EKVX NSCLC,4920 nM
same,GI50,HT29 colon,943 nM
same,TGI,HT29 colon,3530 nM
same,GI50,KM12 colon,1140 nM
same,TGI,KM12 colon,3530 nM
same,GI50,OVCAR-5 ovarian,1830 nM
same,TGI,OVCAR-5 ovarian,3870 nM
same,GI50,IGROV1 ovarian,1520 nM
same,TGI,IGROV1 ovarian,3070 nM
same,GI50,U251 CNS,760 nM
same,TGI,U251 CNS,2070 nM
same,GI50,OVCAR-3 ovarian,1430 nM
same,TGI,OVCAR-3 ovarian,2990 nM
same,GI50,TK-10 renal,2280 nM
same,TGI,TK-10 renal,7430 nM
same,GI50,SK-MEL-5 melanoma,1580 nM
same,TGI,SK-MEL-5 melanoma,2970 nM
same,GI50,SF-268 CNS,1780 nM
same,TGI,SF-268 CNS,5370 nM
same,GI50,UO-31 renal,479 nM
same,TGI,UO-31 renal,1710 nM
same,GI50,SF-539 CNS,514 nM
same,TGI,SF-539 CNS,1650 nM
same,GI50,BT-549 breast,365 nM
same,TGI,BT-549 breast,1410 nM
same,GI50,SNB-75 CNS,1350 nM
same,TGI,SNB-75 CNS,3380 nM
same,GI50,M14 melanoma,922 nM
same,TGI,M14 melanoma,2690 nM
same,GI50,A498 renal,12600 nM
same,TGI,A498 renal,34900 nM
same,GI50,SF-295 CNS,1630 nM
same,TGI,SF-295 CNS,3410 nM
same,GI50,NCI/ADR-RES ovarian,1600 nM
same,TGI,NCI/ADR-RES ovarian,4190 nM
same,GI50,NCI-H460 lung,2720 nM
same,TGI,NCI-H460 lung,8900 nM
same,GI50,HCT-15 colon,963 nM
same,TGI,HCT-15 colon,2860 nM
same,GI50,SNB-19 CNS,1670 nM
same,TGI,SNB-19 CNS,4350 nM
same,GI50,T-47D breast,599 nM
same,TGI,T-47D breast,2960 nM
same,GI50,PC-3 prostate,448 nM
same,TGI,PC-3 prostate,3230 nM
same,GI50,MOLT-4 leukemia,568 nM
same,TGI,MOLT-4 leukemia,6260 nM
same,GI50,CAKI-1 renal,725 nM
